Data reported in patent publication US20090203739A1, “Anti-Inflammatory Agents” (priority 2005, published 2009).
Bridges are numbered along the chain shown (N, C = ends). Where no end group is shown, it is not given here. [ ]: non-standard residue; d: D form.

What was measured:
[1] = system: MCP-1 induced leukocyte migration (THP-1 cells); test: Inhibition of MCP-1 induced leukocyte migration (96-well transwell assay, THP-1 cells); assay type: cell-based; conditions: Homo sapiens, MCP-1 25 ng/ml, 2 hours at 37° C., read-out: ED50 (concentration of compound required to reduce the MCP-1-induced migration by 50%)
Description: In principle, this assay consists of two chambers separated by a porous membrane. The chemoattractant is placed in the lower compartment and the cells are placed in the upper compartment. After incubation for a period at 37° C. the cells move towards the chemoattractant, and the number of cells in the lower compartment is proportional to the chemoattractant activity (relative to a series of controls).
The THP-1 cell line (European Cell culture Collection) were used as the leukocyte cell population.
The following procedure is used for testing the invention compounds for MCP-1 induced leukocyte migration:
First, the cell suspension to be placed in the upper compartment is prepared. The THP-1 cells are pelleted by centrifugation (770×g; 4 mins) and washed with Geys Balanced Salt Solution with 1 mg/ml BSA (GBSS+BSA). This wash is then repeated, and the cells repelleted before being resuspended in a small volume of GBSS+BSA for counting, for example using a standard haemocytometer.
The volume of GBSS+BSA is then adjusted depending on the number of cells present so that the cells are at final density of 4.45×10^6 cells per ml of GBSS+BSA. This ensures that there are […] THP-1 cells in each 25 μl of the solution that will be placed in the upper chamber of the plate.
To test a single compound for its ability to inhibit MCP-1 induced migration, it is necessary to prepare two lots of cells. The suspension of THP-1 cells at 4.45×10^6 cells/ml is divided into two pots. To one pot the inhibitor under test is added at an appropriate final concentration, in an appropriate vehicle (for example at 1 μM in not more than 1% DMSO). To the second pot an equal volume of GBSS+BSA plus vehicle as appropriate (e.g. not more than 1% DMSO) is added to act as a control.
Next, the chemoattractant solution to be placed in the lower compartment is prepared. MCP-1 is diluted in GBSS+BSA to give a final concentration of 25 ng/ml. This is divided into two pots, as for the cell suspension. To one pot, the test compound is added to the same final concentration as was added to the cell suspension, while to the other pot an equal volume of GBSS+BSA plus vehicle as appropriate (e.g. not more than 1% DMSO) is added.
Note that the volume of liquid that needs to be added to make the addition of the text compound needs to be taken into account, when establishing the final concentration of MCP-1 in the solution for the lower compartment and the final concentration of cells in the upper compartment.
Once the chemoattractant solutions for the lower wells and cell solutions for the upper chambers have been prepared, the migration chamber should be assembled. Place 29 μl of the appropriate chemoattractant solution into the lower well of the chamber. Assays should be performed with at least triplicate determinations of each condition. Once all the lower chambers have been filled, apply the prous membrane to the chamber in accordance with the manufacturer's instructions. Finally, apply 25 μl of the appropriate cell solution to each upper chamber. A plastic lid is placed over the entire apparatus to prevent evaporation.
The assembled chamber is incubated at 37° C., 5% CO2, for 2 hours. A suspension of cells in GBSS+BSA is also incubated under identical conditions in a tube: these cells will be used to construct a standard curve for determining the number of cells that have migrated to the lower chamber under each condition. […]

[2] = system: chemokine-induced migration; conditions: versus (S)-3-(undec-10-enoyl)-aminoglutarimide; cited from earlier work
Stability in serum = assay type: in vitro ADME; conditions: 37° C., completely stable
Description: As an approach to identifying such stable analogs, various derivatives of (S)-3-(undec-10-enoyl)-aminoglutarimide have been tested for their stability in serum.

[3] = cited from earlier work

| Compound | EC50 [1] | other results |
| --- | --- | --- |
| CC1(C(=O)N[C@H]2CCCNC2=O)CCCCC1 [Example 5, (S)-3-(1′-Methylcyclohexanecarbonyl)amino-tetrahydropyridin-2-one] | ≤ 100 nM | – |
| O=C1NCCC[C@@H]1NC(=O)C1(c2ccccc2)CCCCC1 [Example 7, (S)-3-(1′-Phenylcyclohexanecarbonyl)amino-tetrahydropyridin-2-one] | ≤ 100 nM | – |
| CC1(C(=O)N[C@H]2CCNC2=O)CCCCC1 [Example 6, (S)-3-(1′-Methylcyclohexanecarbonyl)amino-pyrrolidin-2-one] | ≤ 100 nM | – |
| C=CCCCCCCCCC(=O)[C@@H]1CCCNC1=O [(S)-3-(undec-10-enoyl)-tetrahydropyridin-2-one] | – | potency compared with the parental molecule [2]: considerably reduced potency; stability in human serum (Stability in serum): at least 7 days |
| CCCCCCCCCCC(C)(C)C(=O)N[C@H]1CCCNC1=O [Example 3, (S)-3-(2′,2′-Dimethyldodecanoylamino)-tetrahydropyridin-2-one] | ≤ 100 nM | – |
| c(DCys-DGln-DIle-DTrp-DLys-DGln-DLys-DPro-DAsp-DLeu-DCys)-NH2 ([dC][dQ][dI][dW][dK][dQ][dK][dP][dD][dL][dC]-NH2; disulfide 1-11 (inferred)) [NR58-3.14.3] | – | half-life period of clearance from blood plasma ([3]; after intravenous injection): less than 30 minutes; oral bioavailability ([3]; in vivo, po): not orally bioavailable |
| CCCCCCCCCCC(C)(C)C(=O)N[C@H]1CCNC1=O [Example 4, (S)-3-(2′,2′-Dimethyldodecanoylamino)-pyrrolidin-2-one] | ≤ 100 nM | – |
